Measurements published in patent publication US20250361230A1, “LATS Inhibitors and Uses Thereof” (The USA, as Represented by the Secretary, Dept. of Heath …, priority 2022, published 2025).
Read-outs that look alike come from different tables or passages of the source.

Assays:
Type in all cases: biochemical
[1] = molecular target: T1, LATS1 (Homo sapiens, UniProt O95835); assay: RBC HotSpot kinase assay (33P-ATP, P81 filter-binding), LATS1; conditions: read-out: LATS1 IC50
T1 sequence (O95835 1-1130): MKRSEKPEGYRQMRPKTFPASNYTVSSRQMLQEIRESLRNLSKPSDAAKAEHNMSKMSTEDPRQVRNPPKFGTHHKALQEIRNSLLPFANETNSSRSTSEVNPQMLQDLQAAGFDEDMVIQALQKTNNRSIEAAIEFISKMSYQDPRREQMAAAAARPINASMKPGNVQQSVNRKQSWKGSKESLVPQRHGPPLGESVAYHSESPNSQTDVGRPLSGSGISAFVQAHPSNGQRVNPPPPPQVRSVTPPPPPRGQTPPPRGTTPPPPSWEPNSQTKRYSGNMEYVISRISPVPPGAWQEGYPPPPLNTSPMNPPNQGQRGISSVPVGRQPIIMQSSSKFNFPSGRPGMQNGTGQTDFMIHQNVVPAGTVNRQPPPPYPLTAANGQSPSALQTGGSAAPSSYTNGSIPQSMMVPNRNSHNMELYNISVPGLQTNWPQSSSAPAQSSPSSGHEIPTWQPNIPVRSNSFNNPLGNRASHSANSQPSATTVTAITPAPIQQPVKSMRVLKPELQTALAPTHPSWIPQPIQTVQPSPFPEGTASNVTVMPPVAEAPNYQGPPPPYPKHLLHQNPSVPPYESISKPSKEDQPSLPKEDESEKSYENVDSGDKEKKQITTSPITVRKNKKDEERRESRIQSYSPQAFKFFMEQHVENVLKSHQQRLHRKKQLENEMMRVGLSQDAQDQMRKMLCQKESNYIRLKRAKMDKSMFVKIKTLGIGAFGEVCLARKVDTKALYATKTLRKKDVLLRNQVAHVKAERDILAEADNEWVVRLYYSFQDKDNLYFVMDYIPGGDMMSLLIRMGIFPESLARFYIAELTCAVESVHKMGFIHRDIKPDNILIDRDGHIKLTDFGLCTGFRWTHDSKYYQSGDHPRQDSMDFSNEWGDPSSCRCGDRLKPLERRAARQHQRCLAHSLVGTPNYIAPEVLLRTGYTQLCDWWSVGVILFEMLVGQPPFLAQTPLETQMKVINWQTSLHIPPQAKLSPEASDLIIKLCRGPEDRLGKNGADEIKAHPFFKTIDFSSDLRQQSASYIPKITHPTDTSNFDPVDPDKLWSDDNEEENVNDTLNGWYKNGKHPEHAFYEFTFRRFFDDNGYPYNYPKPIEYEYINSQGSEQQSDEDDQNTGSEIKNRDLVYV
Procedure, shortened: (§1)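 Compounds were run as single 10-point titrations to give IC50 values in nM. Each kinase was mixed with substrate and cofactors in 20 mM Hepes pH 7.5 reaction buffer with 1% DMSO, then exposed to compound for 20 min. 33P-ATP was added for a 2 h room-temperature reaction, with activity measured by P81 filter binding.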

[2] = molecular target: T2, LATS2 (Homo sapiens, UniProt Q9NRM7); assay: RBC HotSpot kinase assay (33P-ATP, P81 filter-binding), LATS2; conditions: read-out: LATS2 IC50
T2 sequence (Q9NRM7 1-1088): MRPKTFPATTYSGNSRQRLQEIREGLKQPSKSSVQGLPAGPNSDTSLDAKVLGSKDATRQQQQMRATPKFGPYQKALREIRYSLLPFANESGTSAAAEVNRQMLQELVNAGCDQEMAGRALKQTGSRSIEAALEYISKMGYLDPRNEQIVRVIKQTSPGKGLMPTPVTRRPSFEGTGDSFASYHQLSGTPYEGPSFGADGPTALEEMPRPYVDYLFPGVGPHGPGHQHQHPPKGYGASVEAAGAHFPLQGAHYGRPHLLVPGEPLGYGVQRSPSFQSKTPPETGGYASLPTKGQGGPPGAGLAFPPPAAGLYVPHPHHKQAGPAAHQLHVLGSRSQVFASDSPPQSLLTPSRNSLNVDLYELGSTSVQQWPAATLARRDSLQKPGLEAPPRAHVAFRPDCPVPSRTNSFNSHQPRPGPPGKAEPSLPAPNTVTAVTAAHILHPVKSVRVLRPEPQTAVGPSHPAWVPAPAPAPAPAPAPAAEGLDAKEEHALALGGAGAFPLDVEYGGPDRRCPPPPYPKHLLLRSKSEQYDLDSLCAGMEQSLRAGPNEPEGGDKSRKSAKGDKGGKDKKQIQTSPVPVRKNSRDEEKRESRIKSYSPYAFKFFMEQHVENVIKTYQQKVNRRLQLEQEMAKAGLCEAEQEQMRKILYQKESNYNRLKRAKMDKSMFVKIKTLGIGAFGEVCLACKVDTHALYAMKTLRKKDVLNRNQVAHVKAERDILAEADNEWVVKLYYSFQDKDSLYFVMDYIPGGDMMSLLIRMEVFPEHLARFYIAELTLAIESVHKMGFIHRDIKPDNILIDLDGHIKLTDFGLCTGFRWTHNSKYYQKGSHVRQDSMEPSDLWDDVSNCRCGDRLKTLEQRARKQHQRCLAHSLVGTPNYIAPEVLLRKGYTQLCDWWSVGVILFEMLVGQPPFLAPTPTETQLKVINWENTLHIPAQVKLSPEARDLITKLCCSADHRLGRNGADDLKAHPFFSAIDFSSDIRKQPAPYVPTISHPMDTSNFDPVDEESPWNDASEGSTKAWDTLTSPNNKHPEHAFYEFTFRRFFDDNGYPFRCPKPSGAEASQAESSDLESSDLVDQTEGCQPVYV
Procedure, shortened: as §1

[3] = molecular target: AKT (Homo sapiens, UniProt P31749); assay: RBC HotSpot kinase assay (33P-ATP, P81 filter-binding), AKT; conditions: read-out: AKT IC50
AKT, sequence (P31749 whole entry): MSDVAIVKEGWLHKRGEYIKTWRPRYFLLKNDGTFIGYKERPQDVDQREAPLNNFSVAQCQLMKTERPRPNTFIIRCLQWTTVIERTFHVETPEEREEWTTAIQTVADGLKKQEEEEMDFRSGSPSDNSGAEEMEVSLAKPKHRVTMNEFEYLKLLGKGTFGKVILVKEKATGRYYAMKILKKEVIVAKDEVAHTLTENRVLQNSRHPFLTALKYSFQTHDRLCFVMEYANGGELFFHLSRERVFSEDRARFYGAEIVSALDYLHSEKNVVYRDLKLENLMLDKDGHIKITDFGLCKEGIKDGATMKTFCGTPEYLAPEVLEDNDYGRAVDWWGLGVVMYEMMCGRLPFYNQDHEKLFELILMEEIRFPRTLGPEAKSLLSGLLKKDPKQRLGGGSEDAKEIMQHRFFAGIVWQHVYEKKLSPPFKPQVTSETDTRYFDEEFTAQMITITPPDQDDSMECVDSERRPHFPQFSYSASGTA
Procedure, shortened: as §1

[4] = Table 28, biochemical kinase assay

IC50 [1, 4] [nM] | IC50 [2, 4] [nM] | IC50 [3, 4] [nM] | IC50 ([1]; biochemical kinase inhibition) [nM] | IC50 ([2]; biochemical kinase inhibition) [nM] | IC50 ([3]; biochemical kinase inhibition) [nM] | Structure (SMILES)
10.8 | 25.6 | 859 | – | – | – | Fc1cccc(CNCc2ccc(-c3ccnc4[nH]ccc34)cc2)c1 [Compound 280, N-(4-(1H-pyrrolo[2,3-b]pyridin-4-yl)benzyl)-1-(3-fluorophenyl) methanamine]
16 | 31 | 470 | – | – | – | Cc1cc(-c2ccnc3[nH]cc(F)c23)cc(C)c1CN [Compound 222, (4-(3-fluoro-1H-pyrrolo[2,3-b]pyridin-4-yl)-2,6-dimethylphenyl) methanamine]
9.1 | 32 | 245 | – | – | – | OC1(c2ccc(-c3ccnc4[nH]cc(-c5cccnc5)c34)cc2)CCNCC1 [Compound 126, 4-(4-(3-(pyridin-3-yl)-1H-pyrrolo[2,3-b]pyridin-4-yl)phenyl)piperidin-4-ol]
34 | 10 | 8830 | – | – | – | NCc1ccc(-c2cc(-c3ccncc3)nc3[nH]ccc23)cc1 [Compound 261, (4-(6-(pyridin-4-yl)-1H-pyrrolo[2,3-b]pyridin-4-yl)phenyl) methanamine]
32.9 | 25.9 | 967 | – | – | – | NC(=O)c1ccc(-c2cc(-c3ccnc4[nH]ccc34)ccc2C2CCNCC2)cc1 [Compound 150, 2′-(piperidin-4-yl)-5′-(1H-pyrrolo[2,3-b]pyridin-4-yl)-[1,1′-biphenyl]-4-carboxamide]
17.4 | 24.8 | 1270 | – | – | – | Cc1cc(-c2ccnc3[nH]cc(F)c23)cc(F)c1C1(O)CC2(CNC2)C1 [Compound 108, 6-(2-fluoro-4-(3-fluoro-1H-pyrrolo[2,3-b]pyridin-4-yl)-6-methylphenyl)-2-azaspiro[3.3]heptan-6-ol]
343 | 207 | > 10000 | – | – | – | NC(=O)c1ccc(-c2ccnc3[nH]ccc23)cc1 [Compound 264, 4-(1H-pyrrolo[2,3-b]pyridin-4-yl)benzamide]
12 | 7 | 158 | – | – | – | OC1(c2ccc(-c3ccnc4[nH]cc(Br)c34)cc2Cl)CNC1 [Compound 123, 3-(4-(3-bromo-1H-pyrrolo[2,3-b]pyridin-4-yl)-2-chlorophenyl)azetidin-3-ol]
20 | 28 | 1250 | – | – | – | CC(C)(O)C#Cc1cc(-c2ccnc3[nH]ccc23)ccc1CN [Compound 244, 4-(2-(aminomethyl)-5-(1H-pyrrolo[2,3-b]pyridin-4-yl)phenyl)-2-methylbut-3-yn-2-ol]
21.6 | 10.3 | 1470 | – | – | – | C[C@@H]1CN(C(=O)[C@H]2CCCN2)C[C@H](C)[C@@]1(O)c1c(F)cc(-c2ccnc3[nH]cc(F)c23)cc1F [Compound 59, 4-(4-((3S,4R,5R)-1-(L-prolyl)-4-hydroxy-3,5-dimethylpiperidin-4-yl)-3,5-difluorophenyl)-3-fluoro-1H-pyrrolo[2,3-b]pyridine]
– | – | – | 3.3 | 3.3 | 278 | N#Cc1c[nH]c2nccc(-c3ccc(C4(O)CCNCC4)cc3)c12 [Compound 2001, 4-(4-(4-hydroxypiperidin-4-yl)phenyl)-1H-pyrrolo[2,3-b]pyridine-3-carbonitrile]
11.6 | 5.4 | 31.2 | – | – | – | CCc1cc(-c2ccnc3[nH]cc(F)c23)ccc1[C@@]1(O)[C@H](C)CN(C2CCS(=O)(=O)CC2)C[C@@H]1C [Compound 306, 4-((3S,4s,5R)-4-(2-ethyl-4-(3-fluoro-1H-pyrrolo[2,3-b]pyridin-4-yl)phenyl)-4-hydroxy-3,5-dimethylpiperidin-1-yl)tetrahydro-2H-thiopyran 1,1-dioxide]
19 | 6 | 809 | – | – | – | C=C(C)c1c[nH]c2nccc(-c3ccc(CN)cc3)c12 [Compound 241, (4-(3-(prop-1-en-2-yl)-1H-pyrrolo[2,3-b]pyridin-4-yl)phenyl) methanamine]
12.8 | 29.5 | 5140 | – | – | – | C[C@@H]1CN(C(=O)C2(N)CC(F)(F)C2)C[C@H](C)C1(O)c1c(F)cc(-c2ccnc3[nH]cc(F)c23)cc1F (stereo partly drawn) [Compound 79, (1-amino-3,3-difluorocyclobutyl) ((3S,5R)-4-(2,6-difluoro-4-(3-fluoro-1H-pyrrolo[2,3-b]pyridin-4-yl)phenyl)-4-hydroxy-3,5-dimethylpiperidin-1-yl)methanone]

Structure (SMILES) | IC50 [1, 4] [nM] | IC50 [2, 4] [nM] | IC50 [3, 4] [nM] | IC50 ([1]; biochemical kinase inhibition) [nM] | IC50 ([2]; biochemical kinase inhibition) [nM] | IC50 ([3]; biochemical kinase inhibition) [nM]
c1cc(-c2ccc(C3CCNCC3)cc2)c2cc[nH]c2n1 [Compound 188, 4-(4-(piperidin-4-yl)phenyl)-1H-pyrrolo[2,3-b]pyridine] | 70 | 75 | 2200 | – | – | –
